Tests used:
Boophilus microplus = Boophilus microplus test (BOOPMI injection); assay type: in vivo; conditions: 20 μg/animal, injected into the abdomen, after 7 days
Method in brief: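 Compound dissolved in DMSO, diluted with water and injected into the tick abdomen; ticks kept in a climatized room. Fertile egg deposition assessed after 7 days; 100% means no tick laid fertile eggs.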

Ctenocephalides felis = Ctenocephalides felis oral (CTECFE); assay type: in vivo; conditions: 100 ppm in citrated cattle blood, after 2 days
Method in brief: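 Twenty unfed adult fleas fed through parafilm on citrated cattle blood containing compound, diluted from a DMSO concentrate (10 mg per 0.5 ml). Kill % scored after 2 days (100% = all dead, 0% = none).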

Lucilia cuprina larvae = assay: Lucilia cuprina test (LUCICU); assay type: in vivo; conditions: 100 ppm, treated horse meat, after 2 days
Method in brief: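 Horse meat treated with compound diluted in water from DMSO concentrate, then populated with larvae. Mortality scored after 2 days as percent kill, 100% meaning all larvae dead.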

[1] = system: larvae of the mustard beetle (Phaedon cochleariae); assay: Phaedon test (PHAECO spray treatment); assay type: in vivo; conditions: 100 g/ha, after 7 days
Method in brief: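 Chinese cabbage leaf discs were sprayed with compound formulated in acetone/dimethyl formamide plus alkylaryl polyglycol ether emulsifier, diluted in emulsifier-containing water to the desired concentration. After drying, discs were infested with mustard beetle larvae. Mortality (%) was scored after 7 days, where 100% means all larvae killed.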

[2] = system: caterpillars of the army worm (Spodoptera frugiperda); assay: Spodoptera frugiperda test (SPODFR spray treatment); assay type: in vivo; conditions: 100 g/ha, after 7 days
Method in brief: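 Maize leaf discs sprayed with compound in acetone/DMF with alkylaryl polyglycol ether emulsifier, diluted in emulsifier-containing water to the test concentration. Once dry, discs were infested with army worm caterpillars. Mortality scored after 7 days as % activity (100% = all caterpillars killed).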

[3] = system: green peach affid (Myzus persicae); assay: Myzus test (MYZUPE spray treatment); assay type: in vivo; conditions: 100 g/ha, after 6 days
Method: Solvents: 78 parts by weight of acetone
• 1.5 parts by weight of dimethyl formamide Emulsifier: 0.5 part by weight of alkylaryl polyglycol ether
To produce a suitable preparation of active compound, 1 part by weight of active compound is mixed with the stated amounts of solvent and emulsifier, and the concentrate is diluted with emulsifier-containing water to the desired concentration.
Discs of Chinese cabbage leaves (Brassica pekinensis) infested by all stages of the green peach affid (Myzus persicae) are sprayed with an active compound preparation of the desired concentration.
After 6 days, the activity in % is determined. 100% means that all affids have been killed; 0% means that none of the affids have been killed.

[4] = system: greenhouse red spider mite (Tetranychus urticae); assay: Tetranychus test, OP resistant (TETRUR spray treatment); assay type: in vivo; conditions: 100 g/ha, after 6 days
Method: Solvents: 78.0 parts by weight of acetone • • 1.5 parts by weight of dimethyl formamide Emulsifier: 0.5 part by weight of alkylaryl polyglycol ether To produce a suitable preparation of active compound, 1 part by weight of active compound is mixed with the stated amounts of solvent and emulsifier, and the concentrate is diluted with emulsifier-containing water to the desired concentration. Discs of bean leaves (Phaseolus vulgaris) which are infested by all stages of the greenhouse red spider mite (Tetranychus urticae) are sprayed with an active compound preparation of the desired concentration. After 6 days, the activity in % is determined. 100% means that all spider mites have been killed; 0% means that none of the spider mites has been killed. The test was carried out and evaluated as described in Example B.7.

[5] = system: Boophilus microplus strain Parkhurst (SP-resistant); assay: Boophilus microplus test (DIP); assay type: in vivo; conditions: 100 ppm
Method: Test animals: adult fed females of the Boophilus microplus strain Parkhurst (SP-resistant)
Solvent: Dimethyl sulphoxide
10 mg of active compound are dissolved in 0.5 ml of dimethyl sulphoxide. To produce a suitable formulation, the active compound solution is diluted with water to the particular desired concentration. This active compound preparation is pipetted into tubes. 8-10 ticks are transferred into a further tube provided with holes. The tube is dipped into the active compound preparation, with all ticks being wetted completely. After the liquid has run off, the ticks are transferred to filter discs in plastic dishes and kept in a climatized room. After the desired period of time, the activity is checked for deposition of fertile eggs. Eggs whose fertility is not visible from the outside are kept in glass tubes in a climatized cupboard under the larvae have hatched. An activity of 100% means that no tick has laid fertile eggs.

[6] = logP by HPLC on reversed-phase columns (C 18), EU Guideline 79/831 Annex V.A8; assay type: physicochemical
adult Musca domestica = assay: Musca domestica test (MUSCDO); assay type: in vivo; conditions: 100 ppm, treated sponge
Method in brief: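 Compound taken up in DMSO and diluted with water to test concentration, applied to a sponge in vessels then stocked with adult houseflies. Kill % scored after the set period; 100% = all flies dead, 0% = none.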

[7] = ** LC-MS in the neutral range, pH 7.8, 0.001 molar aqueous ammonium bicarbonate and acetonitrile

SMILES: CCOC=Nc1c(-c2cc(Cl)c3c(c2)OCO3)c(C(F)(F)F)nn1-c1nccnc1OC [Example 2-18]
- activity (no deposition of fertile eggs) (Boophilus microplus): 100%
- kill (Ctenocephalides felis): 100%
- kill (Lucilia cuprina larvae): 100%
- activity (beetle larvae killed) [1]: 100%
- activity (caterpillars killed) [2]: 100%
- activity (affids killed) [3]: 100%
- activity (spider mites killed) [4]: 100%
- activity (no deposition of fertile eggs) [5]: 100%
- logP [6, 7]: 4.03**

SMILES: CCOC=Nc1c(-c2cc(Cl)cc(C(F)(F)F)c2)c(C(F)(F)C(F)F)nn1-c1ncccn1 [Example 1-34]
- activity (no deposition of fertile eggs) (Boophilus microplus): 100%
- kill (Ctenocephalides felis): 80%
- kill (Lucilia cuprina larvae): 100%
- activity (beetle larvae killed) [1]: 100%
- activity (caterpillars killed) [2]: 100%
- activity (affids killed) [3]: 90%
- activity (spider mites killed) [4]: 100%
- kill (adult Musca domestica): 100%
- logP [6, 7]: 4.43**

SMILES: CCOC=Nc1c(-c2cc(Cl)cc(C(F)(F)F)c2)c(C(F)(F)C(F)(F)F)nn1-c1ncccn1 [Example 1-43]
- activity (beetle larvae killed) [1]: 100%
- activity (caterpillars killed) [2]: 100%
- activity (affids killed) [3]: 100%
- activity (spider mites killed) [4]: 100%
- logP [6, 7]: 5.02**

SMILES: CCOC=Nc1c(-c2cc(Cl)cc(C(F)(F)F)c2)c(C(F)(F)F)nn1-c1ncccn1 [Example 1-11]
- activity (no deposition of fertile eggs) (Boophilus microplus): 100%
- kill (Lucilia cuprina larvae): 100%
- activity (beetle larvae killed) [1]: 100%
- activity (caterpillars killed) [2]: 100%
- activity (affids killed) [3]: 90%
- kill (adult Musca domestica): 80%
- logP ([6]; * LC-MS in the acidic range, pH 2.7, 0.1% aqueous formic acid and acetonitrile): 4.61*
- logP [6, 7]: 4.58**;

SMILES: CCCCOC=Nc1c(-c2cc(Cl)cc(C(F)(F)F)c2)c(C(F)(F)F)nn1-c1ncccn1 [Example 1-15]
- activity (no deposition of fertile eggs) (Boophilus microplus): 100%
- kill (Ctenocephalides felis): 100%
- kill (Lucilia cuprina larvae): 100%
- activity (beetle larvae killed) [1]: 100%
- activity (caterpillars killed) [2]: 100%
- activity (affids killed) [3]: 80%
- activity (spider mites killed) [4]: 100%
- kill (adult Musca domestica): 80%
- logP [6, 7]: 5.24**

— patent US8629273B2, “Diazinylpyrazolyl compounds” (Bayer Intellectual Property GmbH, priority 2009, dated 2014)
